Assay results reported in ChEMBL document CHEMBL1130476, “Molecular modeling of the interaction of trypanocide guanyl hydrazones with B-DNA” (1997).

The compounds below were run on Trypanosoma cruzi (assay: Inhibitory dose for selectivity against Trypanosoma cruzi). Conditions: read-out: ID50 (the source's name).
Type: functional
For `N=C(N)N/N=C/c1ccccc1`, the IC50 was 205 µM.
`N=C(N)N/N=C/c1cccc([N+](=O)[O-])c1O` gave an IC50 of 877 µM.
`N=C(N)N/N=C/c1cc2c(cc1Br)OCO2` showed an IC50 of 23.7 µM.
Work on `N=C(N)N/N=C/c1ccc2c(c1)OCO2` yielded an IC50 of 274 µM.
For `COc1cc(/C=N/NC(=N)N)ccc1O`, the IC50 was 4800 µM.
Compound `COc1cccc(/C=N/NC(=N)N)c1OC` has an IC50 of 22.5 µM.
For `N=C(N)N/N=C/c1ccc(Cl)cc1`, the IC50 was 27.4 µM.
